Experiment: Pulse tracer protocol (bolus L-[15N]-Phe), two compartmental model of Phe kinetics
Type: in vivo, pigs
Conditions: for EC Phe pool (extracellular Phe pool, Q1) / Flux of Phe between intra- and extracellular pool (F12, F21) / Frac. irr. loss (fractional irreversible loss of Phe from the intracellular pool, k02) / IC Phe pool (intracellular Phe pool, Q2) / IC Phe release (fractional intracellular release to extracellular pool, k12) / IC Phe uptake (fractional intracellular uptake from extracellular pool, k21) / Irr. loss (irreversible loss of Phe from the intracellular pool, F02): mean±SEM; for Q1 plasma pool size, mean value: SAAM II fit
Method: Female Yorkshire cross/domestic pigs (20-25 kg BW) were used in the experimental studies. The pigs were housed in steel pens (2 m×3 m) in a controlled housing facility with large animal cubicle at room temperature 22-24° C. with 12 hours light-dark cycle. The pigs were fed with standardized food 1 kg/day (Harlan Teklad Vegetarian Pig/Sow Grower)) and provided water ad libitum.
Animals received catheters and a jejunal stoma during a surgical procedure. During midline laparotomy, catheters were placed into the abdominal aorta for blood sampling, and in the caval vein for administering post-surgery medication and experiment related tracer infusions. A second arterial catheter was placed to monitor mean arterial blood pressure (MAP). A Swan ganz catheter (5 Fr, #132F5, Edwards life sciences, Irvine, Calif., USA) was placed via the right jugular vein to monitor mean pulmonary blood pressure (MPAP). Both preoperative and postoperative cares were standardized. During the recovery period (7-10 days) animals were accustomed to a small movable cage (0.9×0.5×0.3 m). The experiments were performed in this cage on awake animals. This study was approved by the animal experiment ethics committee of University of Arkansas Medical Sciences.
For the induction of sepsis, a live Pseudomonas aeruginosa (PM) human strain is used (IRS 12-4-4, Shriners burns institute, University of Texas Medical Branch, Galveston). Originally, this PM strain was isolated from a burnt patient at Brook Army Medical Center in San Antonio, Tex. Based on pilot virulence experiment, 10^9 Colony Forming Units per hour (CFU/hour) in a volume of 1 ml 0.9% NaCl solution was needed to obtain similar cardiovascular responses and hemodynamic variables with characteristics of severe hyperdynamic sepsis. Hemodynamics was continuously monitored to ensure that the hyperdynamic state was kept in the expected ranges for severe sepsis (body temp increase of 2-3° C., respiratory rate increased, MPAP increased but <35 mmHg, heart rate increased but <200 BPM).
The experiment started after a recovery period of 7-10 days. Four hours after the last food intake (half of the daily amount: 0.5 kg), animals were selected from the Sepsis group or the Healthy group in a randomized fashion. […] At T=0 h, sepsis was induced to the sepsis group by continuous infusion of Pseudomonas aeruginosa (PM, 10^9 CFU/ml/hour), while the Healthy group received an equal volume of 0.9% NaCl solution. Fluid resuscitation (30 ml/kg bw/hour) was also started at T=0 h and hemodynamics were monitored continuously. The results for the primed-continuous tracer protocol (PC) and the pulse tracer protocol were compared between 17 and 18 hours after the start of Pseudomonas aeruginosa. At t=18 h, the pigs were euthanized with 125 mg/k pentobarbital sodium and 16 mg phenytoin sodium (Euthanasol®).
Two stable isotopes of Phe: L-[ring-^13C6]-Phe and L-[^15N]-Phe (Cambridge Isotopes, Andover, Mass.) were used as tracers to study whole body rate of appearances of Phe (WbRa) with two tracer infusion protocols. Phe has been used to determine whole body protein breakdown. Previously studies were conducted based on the prime amount and tracer infusion rates. For the primed-continuous infusion protocol (PC), L-[ring-^13C6]-Phe was used. The prime (1.58 μmol/kg bw) and infusion (4.32 μmol/kg bw/hour) was given respectively in a volume of 2 ml/kg bw and 2 ml/kg bw/hour. It started 12 hours after the start of Pseudomonas aeruginosa, which is also 5 hours before the pulse protocol (PULSE). The L-[^15N]-Phe (26.3 μmol/kg bw in a volume 0.5 ml/kg bw) was used for the pulse protocol. All tracers are given via the central caval vein catheter.
Blood samples were taken and directly cooled on ice. The blood samples were processed within one hour. For amino acid concentration and enrichment analysis, heparinized blood was centrifuged at 4° C., 8000 G for 5 minutes. […]

Compound: N[C@@H](Cc1ccccc1)C(=O)O [Phe, phenylalanine]
- k02 proportionality constant, mean value (Healthy pigs): 0.033 min⁻¹
- k12 proportionality constant, mean value (Healthy pigs): 0.051 min⁻¹
- k21 proportionality constant, mean value (Healthy pigs): 0.115 min⁻¹
- EC Phe pool (extracellular Phe pool, Q1) (Healthy pigs n=9): 44 ± 2.2 μmol/kg BW
- Flux of Phe between intra- and extracellular pool (F12, F21) (Healthy pigs n=9): 5.02 ± 0.40 μmol/kg BW/min
- Frac. irr. loss (fractional irreversible loss of Phe from the intracellular pool, k02) (Healthy pigs n=9): 3.33 ± 0.21 %/min
- IC Phe pool (intracellular Phe pool, Q2) (Healthy pigs n=9): 105 ± 8.0 μmol/kg BW
- IC Phe release (fractional intracellular release to extracellular pool, k12) (Healthy pigs n=9): 5.09 ± 0.69 %/min
- IC Phe uptake (fractional intracellular uptake from extracellular pool, k21) (Healthy pigs n=9): 11.5 ± 0.71 %/min
- Irr. loss (irreversible loss of Phe from the intracellular pool, F02) (Healthy pigs n=9): 3.38 ± 0.10 μmol/kg BW/min
- Q1 plasma pool size, mean value (Healthy pigs): 1121 µmol
- k02 proportionality constant, mean value (Sepsis pigs): 0.028 min⁻¹
- k12 proportionality constant, mean value (Sepsis pigs): 0.044 min⁻¹
- k21 proportionality constant, mean value (Sepsis pigs): 0.105 min⁻¹
- EC Phe pool (extracellular Phe pool, Q1) (Sepsis pigs n=13): 63 ± 5.5 μmol/kg BW
- Flux of Phe between intra- and extracellular pool (F12, F21) (Sepsis pigs n=13): 6.86 ± 0.42 μmol/kg BW/min
- Frac. irr. loss (fractional irreversible loss of Phe from the intracellular pool, k02) (Sepsis pigs n=13): 2.83 ± 0.15 %/min
- IC Phe pool (intracellular Phe pool, Q2) (Sepsis pigs n=13): 157 ± 8.2 μmol/kg BW
- IC Phe release (fractional intracellular release to extracellular pool, k12) (Sepsis pigs n=13): 4.43 ± 0.25 %/min
- IC Phe uptake (fractional intracellular uptake from extracellular pool, k21) (Sepsis pigs n=13): 10.6 ± 0.76 %/min
- Irr. loss (irreversible loss of Phe from the intracellular pool, F02) (Sepsis pigs n=13): 4.33 ± 0.16 μmol/kg BW/min
- Q1 plasma pool size, mean value (Sepsis pigs): 1655 µmol
- intracellular pool relative to extracellular pool (pigs): 2.2 times
